Measurements published in ChEMBL document CHEMBL3045202, “Synthesis of some bisindolyl analogs for in vitro cytotoxic and DNA cleavage studies” (Med Chem Res, 2013).
Calls of active or inactive are those of the source. The calls are words filed in the database; no cut-off is given here.

Tests used:
HeLa = assay: Cytotoxicity against Homo sapiens (human) HeLa cells by MTT assay; assay type: functional, cell-based
HEp-2 = assay: Cytotoxicity against Homo sapiens (human) Hep2 cells by MTT assay; assay type: functional, cell-based
A549 = assay: Cytotoxicity against Homo sapiens (human) A549 cells by MTT assay; assay type: functional, cell-based
Escherichia coli = assay: Induction of DNA cleavage in Escherichia coli at 1 ug/ml after 2 hr by agarose gel electrophoretic analysis

Row | Activity (Escherichia coli) | Compound | IC50 (HeLa) [µM] | IC50 (HEp-2) [µM] | IC50 (A549) [µM]
1 |  | COc1cccc2c1C(=O)c1c(O)c3c(c(O)c1C2=O)C[C@@](O)(C(=O)CO)C[C@@H]3O[C@H]1C[C@H](N)[C@H](O)[C@H](C)O1 [DOXORUBICIN] | 0.71 |  | 
2 |  | COc1ccc2[nH]c(-c3ccccc3)c(C(c3c[nH]c4ccccc34)C3C(=O)NN=C3C)c2c1 (stereo not drawn) | 1.7 | 5.3 | 2.7
3 |  | CC1=NNC(=O)C1C(c1c(-c2ccccc2)[nH]c2ccccc12)c1c(-c2ccccc2)[nH]c2ccc(C)cc12 (stereo not drawn) | > 100 | > 100 | 22.1
4 | Active | CC1=NNC(=O)C1C(c1c[nH]c2ccccc12)c1c(-c2ccccc2)[nH]c2ccc(C)cc12 (stereo not drawn) | 2.4 | 3.2 | 1.3
5 | Active | COc1ccc2[nH]c(-c3ccccc3)c(C(c3c(-c4ccccc4)[nH]c4ccc(C)cc34)C3C(=O)NN=C3C)c2c1 (stereo not drawn) | > 100 | 3.5 | 1.8
6 | Active | COc1ccc2[nH]c(-c3ccccc3)c(C(c3c(-c4ccccc4)[nH]c4ccc(Cl)cc34)C3C(=O)NN=C3C)c2c1 (stereo not drawn) | 1.2 | 6.2 | 1.1
7 |  | CC1=NNC(=O)C1C(c1c[nH]c2ccccc12)c1c(-c2ccccc2)[nH]c2ccccc12 (stereo not drawn) | 7.7 | 6.7 | 5.5
8 |  | CC1=NNC(=O)C1C(c1c[nH]c2ccccc12)c1c(-c2ccccc2)[nH]c2ccc(Cl)cc12 (stereo not drawn) | 3.8 | > 100 | 1.6
9 |  | CC1=NNC(=O)C1C(c1c(-c2ccccc2)[nH]c2ccc(Cl)cc12)c1c(-c2ccccc2)[nH]c2ccc(Cl)cc12 (stereo not drawn) | 9.5 | 14.6 | 7
10 | Active | CC1=NNC(=O)C1C(c1c(-c2ccccc2)[nH]c2ccccc12)c1c(-c2ccccc2)[nH]c2ccc(Cl)cc12 (stereo not drawn) | 29.8 | 41.7 | 31.3
11 |  | CC1=NNC(=O)C1C(c1c(-c2ccccc2)[nH]c2ccc(C)cc12)c1c(-c2ccccc2)[nH]c2ccc(C)cc12 (stereo not drawn) | 32.7 | > 100 | 37
12 |  | CC1=NNC(=O)C1C(c1c(-c2ccccc2)[nH]c2ccc(C)cc12)c1c(-c2ccccc2)[nH]c2ccc(Cl)cc12 (stereo not drawn) | > 100 | 32.4 | 35
